# Earlier results in publication PMC9363195, “Preclinical Pharmacokinetics, Biodistribution, and Acute Toxicity Evaluation of Caerin 1.9 Peptide in Sprague Dawley Rats” (Evidence-based Complementary and Alternative Medicine : eCAM, 2022).
# System: TC-1 cells
# Conditions: cited from earlier work
# Source text: Caerin 1.1 and Caerin 1.9 are stable.
substance,measurement,setting,value
Caerin 1.1,prevention of development of TC-1 cells after heating,heated at 100°C for 5 minutes,equally effective
same,activity after incubation,"room temperature, 7 days, low pH environment (pH5.5-7)",remained active
same,bioactivity after incubation in temperature-sensitive gel,"temperature-sensitive gel, room temperature, 30 days",maintained a similar degree of bioactivity
